Assay results as given in patent US8173668B1 (Alcon Research, Ltd., priority 2007, dated 2012).
Values joined by “and” are separate entries in the source; they are usually repeats but may differ in a detail not shown here. Equal entries are not always repeated.

How the values were obtained:
[1] = tested on: Human trabecular meshwork (TM) cells; assay: PGE2 production (RIA) in human trabecular meshwork cells; format: cell-based; details: 1 h at 37° C., BK 100 nM or 1 μM, fluprostenol 1 μM, non-peptide agonists 1 μM or 10 μM, FIG. 6
Experimental: The ability of BK agonists to stimulate prostaglandin E2 (PGE2) production was examined as follows. Human trabecular meshwork (TM) cells were seeded in culture plates and allowed to reach confluence. […] Fluprostenol was used as a positive control. After this time the assay was terminated by placing the assay plates on ice and by the addition of 100 μL of a cell-lysis reagent supplied with the PGE2 radioimmunoassay (RIA) kit (Amersham Pharmacia Biotech, Arlington Heights, Ill.). All reagents and standards supplied in the RIA kit were prepared and the RIA performed according to the manufacturer's instructions. Assay buffer, diluted prostaglandin E2 (PGE2) standard and supernatant from the cell-based experiment (diluted 1:100 v/v) were then pipetted into appropriate tubes as specified in the kit instructions. […]
After this incubation, all tubes were placed in an ice-bath and 1 ml cold precipitating reagent supplied in the kit was added to the tubes, the content mixed and incubated for 25 min at 4° C. […] The supernatants of all tubes were decanted as specified in the kit instructions and the RIA samples analyzed on a gamma-counter. The levels of PGE2 generated by the test agent were then quantified in comparison with the PGE2-standard curve. Dose-response data for the test agent were constructed and the potency and intrinsic activity determined as described above for other assays.

[2] = biological target: T1, B2-receptors in h-TM cells (Homo sapiens, UniProt P30411); assay: [Ca2+]i mobilization (FLIPR) in h-TM cells, agonist mode; format: cell-based; details: h-TM cells, mean ± SEM
T1 construct: B2-receptor proteins in h-TM, h-CM and h-NPE cells; endogenous in cells; host or cells: human trabecular meshwork (h-TM), human ciliary muscle (h-CM) and human non-pigmented ciliary epithelial (h-NPE) cells
T1 sequence (P30411 1-391): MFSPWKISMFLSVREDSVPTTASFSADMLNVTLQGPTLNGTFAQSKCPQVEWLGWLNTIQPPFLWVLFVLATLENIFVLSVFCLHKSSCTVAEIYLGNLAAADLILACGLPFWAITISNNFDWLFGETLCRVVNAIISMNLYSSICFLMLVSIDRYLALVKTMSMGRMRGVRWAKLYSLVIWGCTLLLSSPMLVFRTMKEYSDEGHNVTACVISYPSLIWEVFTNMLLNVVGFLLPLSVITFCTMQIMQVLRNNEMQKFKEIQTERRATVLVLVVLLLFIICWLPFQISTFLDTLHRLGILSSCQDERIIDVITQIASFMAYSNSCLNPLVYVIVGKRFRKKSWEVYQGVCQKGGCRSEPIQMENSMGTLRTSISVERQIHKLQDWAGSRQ
Experimental: (§1) On the day of the experiment, one vial of FLIPR Calcium Assay Kit dye is re-suspended in 50 mL of a FLIPR buffer consisting of Hank's Balanced Salt Solution (HBSS), 20 mM HEPES, and 2.5 mM probenecid, pH 7.4. Cells are loaded with the calcium-sensitive dye by addition of an equal volume (50 μL) to each well of the 96-well plate and incubated with dye for 1 h at 23° C. After this time, the test compound plate and cell plate are placed in the FLIPR instrument. At the beginning of an experimental run, a signal test is performed to check the basal fluorescence signal from the dye-loaded cells and the uniformity of the signal across the plate. The basal fluorescence is adjusted between 8000-12000 counts by modifying the exposure time, the camera F-stop, or the laser power. Instrument settings for a typical assay are the following: laser power 0.3-0.6 W, camera F-stop F/2, and exposure time 0.4 sec.
(§2) Fluorescence data are collected in real-time at 1.0 sec intervals for the first 60 secs and at 6.0 sec intervals for an additional 120 secs. […] The data are then analyzed using an automated, iterative, sigmoidal curve-fitting computer program to obtain the potency and intrinsic activities of the test agents as previously described (Sharif et al. J. Pharmacol. Exp. Ther. 286: 1094-1102, 1998; Sharif et al. Invest. Ophthalmol. Vis. Sci. 39:2562-2571, 1998; Kelly et al. J. Pharmacol. Exp. Ther. 304: 238-245, 2003). The sources of materials and reagents for such assays can be found in the references cited above.

[3] = biological target: T2, B2-receptors in h-CM cells (Homo sapiens, UniProt P30411); assay: [Ca2+]i mobilization (FLIPR) in h-CM cells, agonist mode; format: cell-based; details: h-CM cells, mean ± SEM
T2 construct: B2-receptor proteins in h-TM, h-CM and h-NPE cells; endogenous in cells; host or cells: human trabecular meshwork (h-TM), human ciliary muscle (h-CM) and human non-pigmented ciliary epithelial (h-NPE) cells
T2 sequence (P30411 1-391): T1 sequence (P30411 1-391)
Experimental: as §1, §2

[4] = biological target: T3, B2-receptors in h-NPE cells (Homo sapiens, UniProt P30411); assay: [Ca2+]i mobilization (FLIPR) in h-NPE cells, agonist mode; format: cell-based; details: h-NPE cells, mean ± SEM
T3 construct: B2-receptor proteins in h-TM, h-CM and h-NPE cells; endogenous in cells; host or cells: human trabecular meshwork (h-TM), human ciliary muscle (h-CM) and human non-pigmented ciliary epithelial (h-NPE) cells
T3 sequence (P30411 1-391): T1 sequence (P30411 1-391)
Experimental: as §1, §2

[5] = biological target: human cloned B2-receptors (Homo sapiens, UniProt P30411); assay: HTRF-based assay of endogenous IP1 production in CHO cells; format: cell-based; details: CHO cells expressing human cloned B2-receptors, read-out: EC50, production of endogenous IP1 from PI turnover
Experimental: The cells are suspended in IP1 stimulation buffer containing Hepes 10 mM, CaCl2 1 mM, MgCl2 0.5 mM, KCl 4.2 mM, NaCl 146 mM, Glucose 5.5 mM, LiCl 50 mM pH 7.4, then distributed in microplates at a density of 40,000 cells/well (B2 receptor assays) or 30,000 cells/well (B1 receptor assays). Test compounds are added to the cells at various concentrations and incubated for 20 min at 37° C. […] Following the 20 min incubation at 37° C., the cells are lysed and the fluorescence acceptor (D2-labeled IP1) and fluorescence donor (anti-IP1 antibody labeled with europium cryptate) are added. After 60 min at room temperature, the fluorescence transfer is measured at λex=337 nm and λem=620 and 665 nm using a microplate reader.

[6] = tested on: conscious ocular hypertensive cynomolgus monkey eyes; assay: IOP response in lasered (hypertensive) eyes of conscious cynomolgus monkeys, topical ocular; format: in vivo; details: for % Change in IOP: Table 7, dose = 30 μg
Experimental: Intraocular pressure (IOP) is determined with an Alcon Pneumatonometer (Alcon Laboratories, Inc., Fort Worth, Tex.) after light corneal anesthesia with 0.1% proparacaine. Right eyes are hypertensive as a result of laser trabeculoplasty. After a baseline IOP measurement, test compound is instilled in the right eyes only of 8-10 cynomolgus monkeys. Vehicle is instilled in the right eyes of 5-6 additional animals. Subsequent IOP measurements are taken at 1, 3, and 6 hours. IOP measurements are also taken on left eyes (normotensive and untreated) at each of these time points. The percent change in IOP from baseline is determined for each animal for every IOP measurement (Sharif et al. J. Ocular Pharmacol. Ther. 17: 305-317, 2001; May et al., J Pharmacol Exp Ther. 306: 301-309, 2003; Sharif et al. Invest. Ophthalmol. Vis. Res. 47: 4001-4010, 2006). Group mean and standard error of the mean (SEM) are calculated for each time point. […] In cases where the compound of invention has poor ocular bioavailability, the compound may need to be administered intracamerally or intravitreally in order to observe the IOP-lowering efficacy.
The IOP-lowering effect was slow to develop but significant IOP reduction was observed even 3 hours post-dosing with maximum ocular hypotension observed 16-48 hours post-dosing (Tables 6-8; FIGS. 3b-5).

[7] = biological target: T4, BK B2-Receptor in h-CM cells (Homo sapiens, UniProt P30411); assay: Antagonism of FR-190997-induced [Ca2+]i mobilization in h-CM cells; format: cell-based; details: FR-190997 as the agonist, read-out: Antagonist Potency (Ki)
T4 construct: B2-receptor proteins in h-TM, h-CM and h-NPE cells; endogenous in cells; host or cells: human trabecular meshwork (h-TM), human ciliary muscle (h-CM) and human non-pigmented ciliary epithelial (h-NPE) cells
Experimental: as §1, with “Instrument settings for a typical assay are the following: laser power 0.3-0.6 W, camera F-stop F/2, and exposure time 0.4 sec.” left out
as §2, with “The sources of materials and reagents for such assays can be found in the references cited above.” left out

[8] = biological target: T5, BK B2-Receptor in h-NPE cells (Homo sapiens, UniProt P30411); assay: Antagonism of FR-190997-induced [Ca2+]i mobilization in h-NPE cells; format: cell-based; details: FR-190997 as the agonist, read-out: Antagonist Potency (Ki)
T5 construct: B2-receptor proteins in h-TM, h-CM and h-NPE cells; endogenous in cells; host or cells: human trabecular meshwork (h-TM), human ciliary muscle (h-CM) and human non-pigmented ciliary epithelial (h-NPE) cells
T5 sequence (P30411 1-391): T1 sequence (P30411 1-391)
Experimental: as §1, §2

[9] = tested on: B1-receptor mRNA; assay: Microarray analysis of B1-receptor mRNA in TGFβ2-treated human TM cells; format: cell-based; details: Glaucomatous h-TM Cells, mean ± SEM
[10] = tested on: B2-receptor mRNA; assay: Microarray analysis of B2-receptor mRNA in TGFβ2-treated human TM cells; format: cell-based; details: mean ± SEM
[11] = read-out: Potency (EC50), [Ca2+]i mobilization
[12] = read-out: Intrinsic Activity (Emax, % max relative to BK)

For `O=C(O)CCC/C=C\C[C@@H]1[C@@H](/C=C/[C@@H](O)COc2cccc(C(F)(F)F)c2)[C@H](O)C[C@@H]1O` (racemic) [fluprostenol, reference compound], the “production of endogenous prostaglandins (PGE2)” value [1] was “stimulate the production of endogenous prostaglandins”.

`Cc1cc(OCc2ccccn2)c2cccc(OCc3c(Cl)ccc(N(C)C(=O)CNC(=O)/C=C/c4ccc(/C=C/c5ccncc5)nc4)c3Cl)c2n1` [Compound 1] gave an Emax ([2]; HTM, read-out: Intrinsic Activity (Emax, % max relative to BK)) of 93%, an EC50 [2, 11] of 290 ± 75 nM and an Emax [3, 12] of 96%. It also gave an EC50 [3, 11] of 237 ± 29 nM, an Emax [4, 12] of 86% and an EC50 [4, 11] of 709 ± 54 nM. The EC50 [5] was 38 nM, the “% Change in IOP” value ([6]; Dose 1/3 hr) was −12.5 ± 3.4% and the “% Change in IOP” value ([6]; Dose 1/6 hr) was −18.9 ± 6.6%. The “% Change in IOP” value ([6]; Dose 2/24 hr) was −26.6 ± 5.4%, the “% Change in IOP” value ([6]; Dose 2/48 hr) was −15.1 ± 3.9% and the “lowering of IOP” value ([6]; topical ocular, 0.03-600 μg/eye) was “significant dose-dependent lowering of IOP”.

With `Cc1nc2c(OCc3c(Cl)ccc(N(C)C(=O)CNC(=O)/C=C/c4ccc(C(=O)N(C)C)cc4)c3Cl)cccn2c1Br` [FR-167344] the Ki [7] was 45 nM and 71 nM and the Ki [8] was 124 nM.

With `CC(=O)Nc1ccc(/C=C/C(=O)NCC(=O)N(C)c2ccc(Cl)c(COc3cccc4ccc(C)nc34)c2Cl)cn1` [FR-173657] the Ki [7] was 68 nM and 114 nM and the Ki [8] was 439 nM.

B1: TGFβ2: cytokine transforming growth factor-β2 (protein, UniProt P61812 303-414, looked up)
Transforming growth factor …: ALDAAYCFRNVQDNCCLRPLYIDFKRDLGWKWIHEPKGYNANFCAGACPYLWSSDTQHSRVLSLYNTINPEASASPCCVSQDLEPLTILYYIGKTPKIEQLSNMIVKSCKCS
With B1 the “Normalized Levels of B1-receptor mRNA (GC-RMA)” value ([9]; after 1.5 hr) was 1.54 ± 0.09, the “Normalized Levels of B1-receptor mRNA (GC-RMA)” value ([9]; after 16 hr) was 0.53 ± 0.05 and the “Normalized Levels of B2-receptor mRNA (GC-RMA)” value ([10]; Glaucomatous h-TM Cells, after 1.5 hr) was 0.97 ± 0.06. The “Normalized Levels of B2-receptor mRNA (GC-RMA)” value ([10]; Glaucomatous h-TM Cells, after 16 hr) was 0.24 ± 0.06, the “Normalized Levels of B2-receptor mRNA (GC-RMA)” value ([10]; Normal h-TM Cells, after 1.5 hr) was 0.68 ± 0.05 and the “Normalized Levels of B2-receptor mRNA (GC-RMA)” value ([10]; Normal h-TM Cells, after 16 hr) was 0.14 ± 0.11.
